{"source": "patent US8138191B2", "about": "“Inhibitor compounds and cancer treatment methods” (Critical Outcome Technologies Inc., priority 2007, dated 2012)", "key": {"[1]": {"test_system": "HCT-116 human colon tumor xenograft", "experiment": "HCT-116 human colon tumor xenograft model", "conditions": "for Deaths: N 10"}, "HL-60": {"test_system": "HL-60", "experiment": "Flow cytometric analysis of cell death (Annexin V/PI), HL-60", "assay_type": "cell-based, human", "conditions": "HL-60, 200 nM", "experimental": "All cell lines were grown and exposed to various concentrations of COTI-2 or vehicle only control and the percentage of dead or dying cells were determined 24 and 48 h post-exposure by Annexin V and propidium iodide.\nHL-60 (human promyelocytic leukemia) cells were grown as non-adherent cells in flasks in RPMI 1640 medium supplemented with 10% FBS. H226 (human non-small cell lung cancer) cells were grown in Eagle's MEM supplemented with 10% FBS. Both cell lines were obtained from the American Type Culture Collection (ATCC)(Rockville, Md.) and maintained at 37° C. in a humidified 5% CO2 atmosphere.\nCells were plated in 25-cm^2 flasks and treated with COTI-2 (0-100 μM) added from a stock DMSO/DMEM solution such that DMSO concentrations never exceeded 0.5%. Control cells were treated with stock DMSO/DMEM. […] Resuspended cells (100 μl) were incubated in the dark with 10 μl propidium iodide (PI, 50 ng per ml; Sigma, St. Louis, Mo.) plus Annexin V-FITC (25 ng per ml, green fluorescence; BD Biosciences, Mississauga, Ontario). […] Samples were analyzed for combined Annexin V/PI staining (to assess dead plus apoptotic cells) using a Beckman Coulter EPCS XL-MCL flow cytometer (Beckman Coulter, Hileah, Fla.) and the data were analyzed with CellQuest software."}, "[2]": {"test_system": "total Akt protein in DMS-114 cells", "experiment": "Total Akt by western blot analysis, DMS-114", "assay_type": "cell-based, human", "conditions": "DMS-114, 250 nM, after 24 hrs", "experimental": "Cell viability was determined at 24, 48, and 96 hrs by the trypan exclusion method. Whole cell lysates were prepared using standard procedures and fifty micrograms of lysate protein was separated on SDS-PAGE gels and analyzed by western blotting.\nCell viability was determined at 24, 48, and 96 h by the trypan exclusion method. Whole cell lysates were prepared using standard procedures and 50 μg of lysate protein was separated on SDS-PAGE gels and analyzed by western blotting."}, "DMS114 and SHP77 cells": {"test_system": "DMS114 and SHP77 cells", "experiment": "Western blotting of AKT pSer473 and AKT phospho-protein targets", "assay_type": "cell-based, human", "conditions": "for mTOR phospho-Ser 2448: 300 nM, time course", "experimental": "Routine laboratory methods were employed for the production of cellular lysates, protein quantification, SDS-PAGE and western blotting. All antibodies were obtained from Cell Signaling and Abcam. To determine total AKT & AKT2 in DMS114 cells, 5×10^4 cells were incubated for 48 h with 10-100 ng of AKT2 siRNA or a scrambled control oligonucleotide. Cells were lysed and 50 μg of protein was separated by SDS-PAGE and blotted with antibody to total AKT or AKT2.\nThe phospho-AKT status at Ser473 was determined in the presence of COTI-2 utilizing western blotting. […] The inhibition of AKT phosphorylation at Ser473 correlates with the reduction in the phosphorylation of GSK-3α/β (pSer21/9), which is a downstream target of activated phospho-AKT. […] The complete time course of the AKT phospho-Ser473 status in DMS114 and SHP77 cells during incubation with COTI-2 is documented in FIG. 39.\nA complex relationship exists between Raptor- and Rictor-containing mTor complexes mTORC1 and mTORC2, respectively, and AKT. mTORC2 activates AKT by Ser473 phosphorylation; in turn, activated AKT phosphorylates TSC2, which prevents its interaction with Rheb and thus the hydrolysis of GTP associated with Rheb. As a result, Rheb-GTP activates mTOR by phosphorylation on Ser2448. […] The results shown in FIGS. 40-45 agree with this hypothesis. […] Phosphorylation of the PTEN C terminal was reported to stabilize PTEN and protect against ubiquitin-mediated degradation (Nat Rev Cancer, 6: 184-192). One implication of this observation is that COTI-2 may activate PTEN and thus, by reducing the amount of PIP3, contribute to the inhibition of AKT activity."}, "[3]": {"experiment": "Metabolic Stability (liver microsomes, dog, Beagle)", "assay_type": "in vitro ADME", "conditions": "1.0E−06 M, 60 min", "experimental": "Metabolic stability was determined in human (mixed gender and pool of 50) monkey (male Cynomolgus, pool of 6 or more), dog male, beagle, pool of 4 or more) and rat (male Sprague-Dawley, pool of 100 or more) liver microsomes. […] Four reference substrates (1 μM) were tested simultaneously with COTI-2. […] Peak areas corresponding to COTI-2 were recorded by HPLC-MS/MS. Metabolic stability, expressed as percent of COTI-2 remaining, was calculated by comparing the peak area of COTI-2 at 60 min to time zero."}, "CYP3A": {"target": "CYP3A (Homo sapiens, UniProt P08684)", "sequence (P08684 2-503)": "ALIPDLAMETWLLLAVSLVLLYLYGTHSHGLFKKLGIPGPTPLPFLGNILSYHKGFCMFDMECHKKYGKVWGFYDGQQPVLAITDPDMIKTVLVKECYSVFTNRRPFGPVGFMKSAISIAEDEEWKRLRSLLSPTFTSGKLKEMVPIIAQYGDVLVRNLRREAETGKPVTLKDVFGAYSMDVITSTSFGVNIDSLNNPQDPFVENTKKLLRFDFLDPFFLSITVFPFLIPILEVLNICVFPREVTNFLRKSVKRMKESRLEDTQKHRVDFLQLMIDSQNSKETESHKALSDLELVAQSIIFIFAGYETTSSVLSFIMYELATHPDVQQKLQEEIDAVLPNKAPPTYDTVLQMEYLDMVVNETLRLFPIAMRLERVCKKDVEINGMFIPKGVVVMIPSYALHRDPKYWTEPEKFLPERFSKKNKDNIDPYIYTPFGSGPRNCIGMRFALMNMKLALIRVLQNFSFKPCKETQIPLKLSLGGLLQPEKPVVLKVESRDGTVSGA", "experiment": "in vitro", "conditions": "both"}, "in vivo": {"experiment": "in vivo", "conditions": "both, rat, in vivo", "excerpt": "Pharmacokinetic studies in animal models provide valuable information that enables prediction of metabolism in humans. There are a large variety of animal models that allow for the pharmacokinetic evaluation of compounds by providing information on serum, plasma, and tissue levels. […] As a result, it is important to keep this phenomenon in mind during extrapolations from animal to human metabolism. An initial pharmacokinetic assessment of COTI-2, administered both intravenously and orally, in its parent formulation and as both an oxalate and tartrate salt were evaluated in rats.\nA single oral or IV dose of the COTI-2 free-base or the aforementioned salt forms was administered to groups of male and female rats and blood samples collected and processed at several time-points post-treatment."}}, "data": [{"smiles": "S=C(N/N=C1/CCCc2cccnc21)N1CCN(c2ccccn2)CC1", "note": "[COTI-2]", "values": [{"measurement": "Day 15 Mean tumor weight", "setting": "[1]; COTI-2 12.5 mg/kg IV", "result": "1,471.3 ± 155.9 mg"}, {"measurement": "Mean survival (Day ± SEM)", "setting": "[1]; COTI-2 12.5 mg/kg IV", "result": "12.8 ± 0.76", "unit": "days"}, {"measurement": "Maximum weight loss (%) (Day #)", "setting": "[1]; COTI-2 12.5 mg/kg IV, Day 17", "result": 20.96, "unit": "%"}, {"measurement": "Deaths", "setting": "[1]; COTI-2 12.5 mg/kg IV", "result": 1}, {"measurement": "Day 15 Mean tumor weight", "setting": "[1]; COTI-2 50.0 mg/kg IV", "result": "1,353.4 ± 127.3 mg"}, {"measurement": "Mean survival (Day ± SEM)", "setting": "[1]; COTI-2 50.0 mg/kg IV", "result": "12.6 ± 0.83", "unit": "days"}, {"measurement": "Maximum weight loss (%) (Day #)", "setting": "[1]; COTI-2 50.0 mg/kg IV, Day 22", "result": 18.43, "unit": "%"}, {"measurement": "Deaths", "setting": "[1]; COTI-2 50.0 mg/kg IV", "result": 2}, {"measurement": "induction of death", "setting": "HL-60; 24 h", "result": "greater than 30%"}, {"measurement": "induction of death", "setting": "HL-60; 48 h", "result": "greater than 70%"}, {"measurement": "total Akt protein", "setting": "[2]", "result": "decreased"}, {"measurement": "phosphorylation of GSK-3α/β (pSer21/9)", "setting": "DMS114 and SHP77 cells; 250 nM", "result": "reduction"}, {"measurement": "AKT Ser473 phosphorylation", "setting": "DMS114 and SHP77 cells; 250 nM, 2 h", "result": "profound inhibition"}, {"measurement": "PTEN phospho-Ser380", "setting": "DMS114 and SHP77 cells; DMS114 cells", "result": "strong but transient increase"}, {"measurement": "mTOR phospho-Ser 2448", "setting": "DMS114 and SHP77 cells; DMS114 cells", "result": "initial decrease in phospho-Ser 2448 at 2 hrs followed by a more sustained decrease at 24 and 48 hrs"}, {"measurement": "mTOR phospho-Ser 2448", "setting": "DMS114 and SHP77 cells; SHP77 cells", "result": "only the decrease at 2 hrs of incubation was observed"}, {"measurement": "Mean Parent Remaining", "setting": "[3]", "result": 5, "unit": "%"}, {"measurement": "inhibition at 15 min, 10 µM", "setting": "CYP3A; human liver microsomes, pH 7.4, probe testosterone (10 µM)", "result": -4, "unit": "%"}, {"measurement": "inhibition at 15 min, 10 µM", "setting": "CYP3A; liver microsomes, pH 7.4, probe testosterone", "result": "< 50", "unit": "%"}, {"measurement": "bioavailability", "setting": "in vivo", "result": 17.7, "unit": "%"}, {"measurement": "Tmax", "setting": "in vivo; po", "result": 4, "unit": "h"}, {"measurement": "clearance (CL) from plasma, fold higher than the oxalate and tartrate formulations", "setting": "in vivo; po", "result": "approximately 2 fold"}, {"measurement": "rate of absorption (Ka), fold higher than the other formulations", "setting": "in vivo; po", "result": "approximately 3 fold"}]}]}
